# Results from patent publication US11440913B2, “Aminoimidazopyridazines as kinase inhibitors” (BRISTOL-MYERS SQUIBB COMPANY, priority 2017, dated 2022).
# Structures can show the parent of a compound that is named as a salt. Where two headings read alike, the source gives them in different places.
# Columns and labels:
# [1] = tested on: MLKL phosphorylation in HT29-L23 human colorectal adenocarcinoma cells; assay: MLKL Phosphorylation High-Content Assay; assay type: cell-based; conditions: 6 h, necroptosis induced with TNFα, SMAC mimetic and Z-VAD, read-out: pMLKL (IC50)
# Method in brief: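 HT29-L23 cells pretreated 30 min at 37 °C with compound (6.25 to 0.106 μM final), then necroptosis induced with TNFα 35 ng/mL, SMAC mimetic 700 nM and Z-VAD 140 nM for 6 h. Fixed cells immunostained for MLKL pS358 and imaged; IC50 and Ymax from 4-parameter logistic fit.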
# [2] = target: His-GST-TVMV-hRIPK1(1-324) (Homo sapiens (Human), UniProt Q13546); assay: RIPK1 HTRF Binding Assay; conditions: HTRF binding, 1 h at rt; read-out: RIPK1 (IC50)
# Chain of His-GST-TVMV-hRIPK1(1-324) (Q13546 1-324): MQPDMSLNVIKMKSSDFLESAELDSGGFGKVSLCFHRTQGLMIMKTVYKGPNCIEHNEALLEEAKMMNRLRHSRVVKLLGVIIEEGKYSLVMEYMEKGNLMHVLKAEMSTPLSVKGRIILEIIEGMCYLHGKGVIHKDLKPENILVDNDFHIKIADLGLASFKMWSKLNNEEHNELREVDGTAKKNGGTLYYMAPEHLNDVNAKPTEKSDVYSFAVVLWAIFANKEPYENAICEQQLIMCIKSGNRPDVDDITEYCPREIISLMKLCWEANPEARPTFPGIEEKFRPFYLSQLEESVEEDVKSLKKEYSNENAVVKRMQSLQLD
# Method in brief: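 HTRF probe-displacement binding: 1 nM His-GST-TVMV-hRIPK1(1-324) (baculovirus construct), 90.6 nM probe, 0.2 nM anti-GST-Tb in 20 mM HEPES, 10 mM MgCl2, 0.015% Brij-35, 4 mM DTT, 0.05 mg/mL BSA. Incubated 1 h at rt; FRET 520/495 nm ratio, inhibition relative to DMSO-only wells.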
SMILES,IC50 ([1]; Homo sapiens) [nM],IC50 [2] [nM],IC50 [1] [nM]
"CC(=O)Nc1cn2nc(-c3ccc(C)c(C(=O)NCc4cc(F)ccc4-c4cnn(C5CC5)c4)c3F)ccc2n1 [Example 410, N-{[2-(1-cyclopropyl-1H-pyrazol-4-yl)-5-fluorophenyl]methyl}-3-{2-acetamidoimidazo [1,2-b]pyridazin-6-yl}-2-fluoro-6-methylbenzamide]",77,39,–
"CC(=O)Nc1cn2nc(-c3ccc(Cl)c(C(=O)N[C@H](C)c4cc(OC(F)(F)F)ccc4F)c3F)ccc2n1 [Example 388, 6-chloro-3-{2-acetamidoimidazo [1,2-b]pyridazin-6-yl}-2-fluoro-N-[(1R)-1-[2-fluoro-5-(trifluoromethoxy)phenyl]ethyl] benzamide]",2,7,–
"CC(=O)Nc1cn2nc(-c3cc(C(=O)NCc4cccc(OC(F)(F)F)c4)c(C)nc3C)ccc2n1 [Example 88, 5-{2-acetamidoimidazo[1,2-b]pyridazin-6-yl}-2,6-dimethyl-N-{[3-(trifluorometh-oxy)phenyl]methyl}pyridine-3-carboxamide]",42,25,–
"CC(=O)Nc1cn2nc(-c3cnc(C)c(C(=O)NCc4cc(F)cc(OC(F)(F)F)c4)c3)ccc2n1 [Example 207, 5-{2-acetamidoimidazo[1,2-b]pyridazin-6-yl}-N-{[3-fluoro-5-(trifluoromethoxy)phenyl]methyl}-2-methylpyridine-3-carboxamide, TFA]",92,29,–
"COc1nc(C)c(-c2ccc3nc(NC(C)=O)cn3n2)cc1C(=O)NCc1cc(F)cc(C(F)(F)F)c1 [Example 293, 5-{2-acetamidoimidazo[1,2-b]pyridazin-6-yl}-N-{[3-fluoro-5-(trifluoromethyl)phenyl]methyl}-2-methoxy-6-methylpyridine-3-carboxamide]",135,33,–
"[2H]C([2H])([2H])Oc1ncc(-c2ccc3nc(NC(C)=O)cn3n2)cc1C(=O)NCc1cc(OC(F)(F)F)ccc1F [Example 58, 5-{2-acetamidoimidazo[1,2-b]pyridazin-6-yl}-N-{[2-fluoro-5-(trifluoromethoxy)phenyl]methyl}-2-(D3)methoxypyridine-3-carboxamide]",21,14,–
"CC(=O)Nc1cn2nc(-c3cnc(C)c(C(=O)NCc4ccccc4OCC(F)(F)F)c3)ccc2n1 [Example 193, 5-{2-acetamidoimidazo[1,2-b]pyridazin-6-yl}-2-methyl-N-{[2-(2,2,2-trifluoroethoxy)phenyl]methyl}pyridine-3-carboxamide]",61,56,–
"COc1ncc(-c2ccc3nc(NC(C)=O)cn3n2)cc1C(=O)NCc1cc(F)cc(F)c1OC1CCOC(C)C1 (centres unmarked) [Example 96, N-({3,5-difluoro-2-[(2-methyloxan-4-yl)oxy]phenyl}methyl)-5-{2-acetamidoimidazo[1,2-b]pyridazin-6-yl}-2-methoxypyridine-3-carboxamide]",25,10,–
"COc1ncc(-c2ccc3nc(NC(C)=O)cn3n2)cc1C(=O)NCc1ccc(F)c(F)c1OC(C)C1CC1 (centres unmarked) [Example 131, N-{[2-(1-cyclopropylethoxy)-3,4-difluorophenyl]methyl}-5-{2-acetamidoimidazo[1,2-b]pyridazin-6-yl}-2-methoxypyridine-3-carboxamide]",–,79,481
"COc1nc(C)c(-c2ccc3nc(NC(C)=O)cn3n2)cc1C(=O)NCc1c(F)cc(F)cc1OCC1CC1 [Example 298, N-{[2-(cyclopropylmethoxy)-4,6-difluorophenyl]methyl}-5-{2-acetamidoimidazo[1,2-b]pyridazin-6-yl}-2-methoxy-6-methylpyridine-3-carboxamide]",79,43,–
"[2H]C([2H])([2H])Oc1nc(C)c(-c2ccc3nc(NC(C)=O)cn3n2)cc1C(=O)NCc1cc(OC(F)(F)F)ccc1F [Example 179, 5-{2-acetamidoimidazo[1,2-b]pyridazin-6-yl}-N-{[2-fluoro-5-(trifluoromethoxy)phenyl]methyl}-2-(deutero)methoxy-6-methylpyridine-3-carboxamide]",13,3,–
"COc1ncc(-c2ccc3nc(NC(C)=O)cn3n2)cc1C(=O)NCc1cccc(F)c1OC(C)C1CC1 (centres unmarked) [Example 134, N-{[2-(1-cyclopropylethoxy)-3-fluorophenyl]methyl}-5-{2-acetamidoimidazo[1,2-b]pyridazin-6-yl}-2-methoxypyridine-3-carboxamide]",–,18,28
"CC(=O)Nc1cn2nc(-c3cnc(C)c(C(=O)NCc4cc(F)cc(F)c4OCC4CC4)c3)ccc2n1 [Example 214, N-{[2-(cyclopropylmethoxy)-3,5-difluorophenyl]methyl}-5-{2-acetamidoimidazo[1,2-b]pyridazin-6-yl}-2-methylpyridine-3-carboxamide]",16,1,–
"CC(=O)Nc1cn2nc(-c3cc(C(=O)NCc4cc(F)ccc4OC(F)(F)F)cnc3Cl)ccc2n1 [Example 321, 6-chloro-5-{2-acetamidoimidazo[1,2-b]pyridazin-6-yl}-N-{[5-fluoro-2-(trifluoromethoxy)phenyl]methyl}pyridine-3-carboxamide]",386,44,–
"COc1ncc(-c2ccc3nc(NC(C)=O)cn3n2)cc1C(=O)NCc1cc(F)ccc1OCC(F)(F)F [Example 105, 5-{2-acetamidoimidazo[1,2-b]pyridazin-6-yl}-N-{[5-fluoro-2-(2,2,2-trifluoroethoxy)phenyl]methyl}-2-methoxypyridine-3-carboxamide]",17,5,–
"COc1ncc(-c2ccc3nc(NC(C)=O)cn3n2)cc1C(=O)NCc1cc(F)cc(F)c1OC1CC1 [Example 118, N-[(2-cyclopropoxy-3,5-difluorophenyl)methyl]-5-{2-acetamidoimidazo[1,2-b]pyridazin-6-yl}-2-methoxypyridine-3-carboxamide]",28,2,–
"COc1cc(C)c(-c2ccc3nc(NC(=O)CO)cn3n2)cc1C(=O)NCc1cc(OC(F)(F)F)ccc1F [Example 422, N-(2-fluoro-5-(trifluoromethoxy)benzyl)-5-(2-(2-hydroxyacetamido)imidazo[1,2-b]pyridazin-6-yl)-2-methoxy-4-methylbenzamide]",75,6,–
"COc1nc(C)c(-c2ccc3nc(NC(C)=O)cn3n2)cc1C(=O)NCc1ccccc1OC(C)CO (centres unmarked) [Example 17, 5-{2-acetamidoimidazo[1,2-b]pyridazin-6-yl}-N-({2-[(1-hydroxypropan-2-yl)oxy]phenyl}methyl)-2-methoxy-6-methylpyridine-3-carboxamide]",129,27,–
"COc1ncc(-c2ccc3nc(NC(C)=O)cn3n2)cc1C(=O)NCc1cc(F)cc(F)c1OC1CC(C)OC(C)C1 (centres unmarked) [Example 103, N-({2-[(2,6-dimethyloxan-4-yl)oxy]-3,5-difluorophenyl}methyl)-5-{2-acetamidoimidazo[1,2-b]pyridazin-6-yl}-2-methoxypyridine-3-carboxamide]",188,51,–
"[2H]C([2H])([2H])Oc1nc(C)c(-c2ccc3nc(NC(C)=O)cn3n2)cc1C(=O)NCc1cc(F)cc(F)c1OC([2H])([2H])C1CC1 [Example 174, N-({2-[cyclopropyl(deutero)methoxy]-3,5-difluorophenyl}methyl)-5-{2-acetamidoimidazo[1,2-b]pyridazin-6-yl}-2-(deutero)methoxy-6-methylpyridine-3-carboxamide]",1,3,–
"[2H]C([2H])(NC(=O)c1cc(-c2ccc3nc(NC(C)=O)cn3n2)cnc1C)c1cc(C(F)(F)F)ccc1F [Example 200, 5-{2-acetamidoimidazo[1,2-b]pyridazin-6-yl}-N-{[2-fluoro-5-(trifluoromethyl)phenyl] (deutero)methyl}-2-methylpyridine-3-carboxamide]",34,17,–
"COc1nc(C)c(-c2ccc3nc(NC(C)=O)cn3n2)cc1C(=O)NCc1ncccc1OCC1CCCC1 [Example 312, N-{[3-(cyclopentylmethoxy)pyridin-2-yl]methyl}-5-{2-acetamidoimidazo[1,2-b]pyridazin-6-yl}-2-methoxy-6-methylpyridine-3-carboxamide, 2 TFA]",–,7,38
"COc1ncc(-c2ccc3nc(NC(=O)CO)cn3n2)cc1C(=O)NCc1cc(C(F)(F)F)ccc1F [Example 34, N-{[2-fluoro-5-(trifluoromethyl)phenyl]methyl}-5-[2-(2-hydroxyacetamido)imidazo[1,2-b]pyridazin-6-yl]-2-methoxypyridine-3-carboxamide]",215,96,–
"CC(=O)Nc1cn2nc(-c3cnc(C)c(C(=O)N4CCCC(O)(Cc5ccc(F)cc5)C4)c3)ccc2n1 (centres unmarked) [Example 357, N-[6-(5-{3-[(4-fluorophenyl)methyl]-3-hydroxypiperidine-1-carbonyl}-6-methylpyridin-3-yl)imidazo[1,2-b]pyridazin-2-yl] acetamide]",219,335,–
"COc1ncc(-c2ccc3nc(NC(C)=O)cn3n2)cc1C(=O)NCc1ccccc1OCC(F)(F)F [Example 108, 5-{2-acetamidoimidazo[1,2-b]pyridazin-6-yl}-2-methoxy-N-{[2-(2,2,2-trifluoroethoxy)phenyl]meth-yl}pyridine-3-carboxamide]",28,4,–
